Results reported in patent US20240390296A1, “R-KETAMINE AND DERIVATIVE THEREOF AS PROPHYLACTIC OR THERAPEUTIC AGENT FOR NEURODE[…] OR R[…]” (National University Corporation Chiba University, priority 2017, published 2024).

Legend:
MPTP-treated mice = test: MPTP mouse model of Parkinson's disease, DAT immunohistochemistry in the striatum; assay type: in vivo
From the text: A Parkinson's disease model animal (Jackson-Lewis V. et al. Protocol for the MPTP mouse model of Parkinson's disease. Nat Protoc. 2007; 2 (1): 141-51.), which is a representative Parkinson's disease animal model and has been used by a number of research groups so far, was used to study the therapeutic effect of R-ketamine and S-ketamine on the loss of the dopamine nervous system in the brain of the model animal.
The creation of the Parkinson's disease model animal and the administration of the drug were specifically carried out as described below (FIG. 1). As the mouse, a male C57BL/6N mouse (12 weeks of age, SLC Japan Co., Ltd., Hamamatsu, Japan) was purchased. Mice had free access to water and food. For the experiment, those above 14 weeks of age were used. On the first day of the experiment, physiological saline (5 mL/kg body weight) or MPTP (10 mg/kg body weight) was intraperitoneally administered three times at two hours intervals. Three hours after the final administration, R-ketamine (10 mg/kg body weight) or S-ketamine (10 mg/kg body weight), or a vehicle (physiological saline 0.5 mL/kg) was intranasally administered. Similarly, from the second day to the seventh day of the experiment, R-ketamine (10 mg/kg body weight) or S-ketamine (10 mg/kg body weight), or the vehicle (physiological saline 0.5 mL/kg) was intranasally administered. (A) is a group administered with physiological saline+physiological saline, (B) is a group administered with MPTP+physiological saline, (C) is a group administered with MPTP+R-ketamine, and (D) is a group administered with MPTP+S-ketamine. On the eighth day of the experiment, mice were perfused and fixed, and immunohistochemistry of dopamine transporter (DAT) was carried out. The immunohistochemistry of DAT was photographed with a microscope equipped with a CCD camera (Olympus IX70, Tokyo, Japan), and the shading was analyzed using SCION IMAGE software. Representative immunohistochemical photographs were taken with a Keyence microscope (BZ-9000, Osaka, Japan).
Statistical analysis was carried out by one-way analysis of variance (one-way ANOVA) followed by Tukey's test (Tukey HSD test). Data are expressed as mean±standard error (n=7 to 8 mouse/group). * p<0.05, ** p<0.01, and *** p<0.001 show significant differences compared to the (B) group of mice treated with MPTP+physiological saline.
The test was carried out in the same manner as in the test in FIG. 1 except that R-ketamine (10 mg/kg body weight) or the vehicle (physiological saline 0.5 mL/kg) was intranasally administered once (FIG. 4). There were a group administered with physiological saline+physiological saline, a group administered with MPTP+physiological saline, and a group administered with MPTP+R-ketamine.
The test was carried out in the same manner as in the test in FIG. 1 except that R-norketamine (10 mg/kg body weight) or S-norketamine (10 mg/kg body weight) was administered (FIG. 6). There were a group administered with physiological saline+physiological saline, a group administered with MPTP+physiological saline, a group administered with MPTP+R-norketamine, and a group administered with MPTP+S-norketamine.
The test was carried out in the same manner as in the test in FIG. 1 except that ANA-12 (0.5 mg/kg), an antagonist of the TrkB receptor for brain-derived neurotrophic factor (BDNF: Brain-derived Neurotrophic Factor), was administered before the administration of R-ketamine. (FIG. 8). It should be noted that in FIG. 8, ANA-12 is described as ANA. There was a group administered with physiological saline+physiological saline, a group administered with MPTP+physiological saline, a group administered with MPTP+R-ketamine, a group administered with MPTP+R-ketamine+ANA-12, and a group administered with MPTP+ANA-12.

[1] = animal experiments, non-patent literature 5; cited from earlier work
α-synuclein-treated mice = test: Lewy body dementia model (intracerebroventricular α-synuclein), novel object recognition test (NORT); assay type: in vivo, mouse; details: 10 mg/kg intraperitoneal once a day, day 2 to day 10; test session day 15; male ICR mice
From the text: The therapeutic effects of R-ketamine and S-ketamine on cognitive dysfunction were studied using animal models of Lewy body dementia and diseases caused by α-synuclein aggregation (intracerebroventricular administration of α-synuclein), which have been used by a number of research groups so far.
The creation of the Lewy body dementia model animal and the administration of the drugs were specifically carried out as described below (FIG. 12). As the mouse, a male ICR mouse (five weeks of age, SLC Japan Co., Ltd., Hamamatsu, Japan) was purchased. Mice had free access to water and food. First, α-synuclein (StressMarq @ Bioscience, Cat #: SPR-322) was incubated at 37° C. for four days to let aggregate. On the first day of the experiment, mice were anesthetized with isoflurane and pentobarbital, and placed on a mouse brain fixation apparatus. Physiological saline (6 μL) or α-synuclein (6 μg) was administered intracerebroventricularly. […]
Statistical analysis was carried out by one-way analysis of variance (one-way ANOVA) followed by the Fisher's least significant difference test (Fisher's Least Significant Difference test). Data are expressed as mean±standard error (n=4 mouse/group). * p<0.05 and ** p<0.01 show significant differences compared to the group of mice treated with α-synuclein+physiological saline.

β-amyloid-treated mice = test: Alzheimer's disease model (intracerebroventricular β-amyloid), novel object recognition test (NORT); assay type: in vivo, mouse; details: 10 mg/kg intraperitoneal once a day, day 2 to day 10; test session day 15; male ICR mice
From the text: Using an animal model of Alzheimer's disease (intracerebroventricular administration of β-amyloid), which has been used by a number of research groups so far, the therapeutic effect of R-ketamine and S-ketamine on the cognitive dysfunction was studied.
The creation of the Alzheimer's disease model animal and the administration of the drug were specifically carried out as described below (FIG. 10). As the mouse, a male ICR mouse (five weeks of age, SLC Japan Co., Ltd., Hamamatsu, Japan) was purchased. Mice had free access to water and food. First, β-amyloid (BACHEM, Cat. #: H-1192.0005) was incubated at 37° C. for four days to let aggregate. On the first day of the experiment, mice were anesthetized with isoflurane and pentobarbital, and placed on a mouse brain fixation apparatus. Distilled water (6 μL) or β-amyloid (6 μg) was administered intracerebroventricularly. […] On the 14th day of the experiment, two objects having different shapes and colors were placed on the NORT apparatus at a distance of 35.5 cm, and the time for searching for each object was measured. […] The time to search for two objects was measured, and the ratio of the time to search for a new object to the time to search for the two objects in the test session on the second day was calculated. […]

NMDA receptor = details: non-patent literature 4; cited from earlier work
[2] = tested on: animal model of Parkinson's disease; details: 50 mg/kg (anesthetic dose), cited from earlier work
[3] = 10 mg/kg intranasal, day 1 (3 h after last MPTP) to day 7, DAT on day 8, male C57BL/6N mice

For CN[C@@]1(c2ccccc2Cl)CCCCC1=O [R-ketamine], the “MPTP-induced decrease in DAT density in the striatum” value (MPTP-treated mice; [3]) was “significantly improved the decrease in DAT density”, the “MPTP-induced decrease in DAT density in the striatum” value (MPTP-treated mice; 10 mg/kg intranasal, single administration) was “suppressed MPTP-induced decrease in DAT density” and the “MPTP-induced decrease in DAT density in the striatum” value (MPTP-treated mice; R-ketamine 10 mg/kg intranasal with ANA-12 (0.5 mg/kg) administered before) was “No effect of R-ketamine was observed”. For the same compound, the “side effects (psychotic disorder triggering effect, drug dependency, and the like) compared with S-ketamine” value [1] was “fewer side effects”, the “decrease in cognitive function caused by α-synuclein administration (NORT)” value (α-synuclein-treated mice) was “significantly improved the decrease in cognitive function” and the “decrease in cognitive function caused by β-amyloid administration (NORT)” value (β-amyloid-treated mice) was “significantly improved the decrease in cognitive function”.
In the case of N[C@@]1(c2ccccc2Cl)CCCCC1=O [R-norketamine], the “MPTP-induced decrease in DAT density in the striatum” value (MPTP-treated mice; [3]) is reported as “did not suppress MPTP-induced decrease in DAT density”.
In the case of CN[C@]1(c2ccccc2Cl)CCCCC1=O [S-ketamine], the “MPTP-induced decrease in DAT density in the striatum” value (MPTP-treated mice; [3]) is given as “did not improve the decrease in DAT density”, the “affinity for the NMDA receptor relative to R-ketamine” value (NMDA receptor) is given as “about four times higher than R-ketamine” and the “decrease in cognitive function caused by β-amyloid administration (NORT)” value (β-amyloid-treated mice) is given as “did not improve the decrease in cognitive function”.
In the case of O=C(Nc1ccccc1C(=O)NC1CCCCNC1=O)c1cc2ccccc2s1 (centres unmarked) [ANA-12], the “MPTP-induced decrease in DAT density” value (MPTP-treated mice; ANA-12 alone, 0.5 mg/kg) is reported as “did not affect MPTP-induced decrease in DAT density”.
For N[C@]1(c2ccccc2Cl)CCCCC1=O [S-norketamine], the “MPTP-induced decrease in DAT density in the striatum” value (MPTP-treated mice; [3]) was “did not suppress MPTP-induced decrease in DAT density”.
For CNC1(c2ccccc2Cl)CCCCC1=O (racemic) [RS-ketamine], the “neuroprotective effect in an animal model of Parkinson's disease” value ([2]; non-patent literature 2) is given as “has a neuroprotective effect” and the “side effects such as an acute activity increase effect” value [2] is given as “notably observed”.
